Results from ChEMBL document CHEMBL2086377, “Synthesis and functionalization of cyclic sulfonimidamides: a novel chiral heterocyclic carboxylic Acid bioisostere” (ACS Med Chem Lett, 2012).

How the values were obtained:
[1] = Octanol-buffer partition coefficient, log D of the compound after 30 mins by shake flask method at pH 7.4
[2] = Dissociation constant, pKa of the compound at 10 mM by pressure-assisted capillary electrophoretic/mass spectrometric analysis; type: physicochemical
[3] = Apparent permeability of the compound from apical to basal side of human Caco2 cells at 1 uM after 60 mins by LCMS analysis; type: ADME, cell-based; conditions: Caco-2
in vitro = conditions: human, Caco-2
Description: Efflux ratio of apparent permeability of the compound from basal to apical to apical to basal side of human Caco2 cells at 1 uM after 60 mins by LCMS analysis

logD at 0.5 h [1] | pKa at 10000 µM [2] | Papp A→B at 1 h, 1 µM [3] [×10⁻⁶ cm/s] | efflux ratio at 1 h, 1 µM (in vitro) | Compound
0.3 |  |  |  | N#Cc1cccc(-c2cccc(C(=O)O)c2)c1
1.3 | 4.1 |  |  | Cc1ccc(-c2cccc(-c3nn[nH]n3)c2)cc1
 | 4 |  |  | Cc1ccc(-c2cccc(C(=O)O)c2)cc1
 | 6 | 66 |  | Cc1ccc(-c2cccc([S@]3(=O)=NC(=O)[C@H](C)N3)c2)cc1
0.7 | 4 | < 0.3 | 255 | N#Cc1cccc(-c2cccc(-c3nn[nH]n3)c2)c1
 | 5.8 | 2.3 |  | C[C@@H]1N[S@](=O)(c2cccc(-c3cccc(C#N)c3)c2)=NC1=O
